Test results published in US4464385A, “Treatment of diabetic complications with hydantoins” (Alcon Laboratories, Inc., priority 1982, dated 1984).

Columns and labels:
[1] = system: cataracts in rats; test: Prevention or retardation of cataracts in galactose-fed rats; format: in vivo, rat; settings: for suppression of the formation of nuclear cataracts: 30 days; for % of Total Eyes, + (vacuole) / % of Total Eyes, - (Normal) / % of Total Eyes, N (nuclear cataract) / % of Total Eyes, S (snowflake) / Number of Eyes Observed, + (vacuole) / Number of Eyes Observed, - (Normal) / Number of Eyes Observed, N (nuclear cataract) / Number of Eyes Observed, S (snowflake) / Number of Eyes Observed, ±: 30% galactose diet, A,C,E 0.0025%, B,D 0.01%
How it was run: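 Rats given test compound mixed into diet (by % of total feed weight; 0.01% designed to supply 20 mg/kg/day) ad libitum for thirty days after a two-day chow acclimatization, twelve animals per treatment. Eyes examined by handheld ophthalmoscope and/or penlight and each eye graded.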

[2] = system: aldose reductase; test: Aldose reductase inhibition / potency (general statement)

Compound: C[S+]([O-])c1ccc2c(c1)C1(CCO2)NC(=O)NC1=O (centres unmarked) [D, spiro-(6-methylsulfinylchroman-4,4'-imidazolidine)-2',5'-dione]
- suppression of the formation of nuclear cataracts ([1]; 0.0025% in diet): greater than 80%
- time to vacuole formation, versus galactose control ([1]; 0.01% in diet): different (p<0.05) from control
- suppression of the formation of nuclear cataracts ([1]; 0.01% in diet): greater than 80%
- % of Total Eyes, + (vacuole) ([1]; Study Day 2): 0%
- % of Total Eyes, - (Normal) ([1]; Study Day 2): 100.0%
- % of Total Eyes, N (nuclear cataract) ([1]; Study Day 2): 0%
- % of Total Eyes, S (snowflake) ([1]; Study Day 2): 0%
- Number of Eyes Observed, + (vacuole) ([1]; Study Day 2): 0 eyes
- Number of Eyes Observed, - (Normal) ([1]; Study Day 2): 24 eyes
- Number of Eyes Observed, N (nuclear cataract) ([1]; Study Day 2): 0 eyes
- Number of Eyes Observed, S (snowflake) ([1]; Study Day 2): 0 eyes
- Number of Eyes Observed, ± ([1]; Study Day 2): 0 eyes
- % of Total Eyes, + (vacuole) ([1]; Study Day 3): 0%
- % of Total Eyes, - (Normal) ([1]; Study Day 3): 91.7%
- % of Total Eyes, N (nuclear cataract) ([1]; Study Day 3): 0%
- % of Total Eyes, S (snowflake) ([1]; Study Day 3): 0%
- Number of Eyes Observed, + (vacuole) ([1]; Study Day 3): 0 eyes
- Number of Eyes Observed, - (Normal) ([1]; Study Day 3): 22 eyes
- Number of Eyes Observed, N (nuclear cataract) ([1]; Study Day 3): 0 eyes
- Number of Eyes Observed, S (snowflake) ([1]; Study Day 3): 0 eyes
- Number of Eyes Observed, ± ([1]; Study Day 3): 2 eyes
- % of Total Eyes, + (vacuole) ([1]; Study Day 4): 16.7%
- % of Total Eyes, - (Normal) ([1]; Study Day 4): 75.0%
- % of Total Eyes, N (nuclear cataract) ([1]; Study Day 4): 0%
- % of Total Eyes, S (snowflake) ([1]; Study Day 4): 0%
- Number of Eyes Observed, + (vacuole) ([1]; Study Day 4): 4 eyes
- Number of Eyes Observed, - (Normal) ([1]; Study Day 4): 18 eyes
- Number of Eyes Observed, N (nuclear cataract) ([1]; Study Day 4): 0 eyes
- Number of Eyes Observed, S (snowflake) ([1]; Study Day 4): 0 eyes
- Number of Eyes Observed, ± ([1]; Study Day 4): 2 eyes
- % of Total Eyes, + (vacuole) ([1]; Study Day 5): 33.3%
- % of Total Eyes, - (Normal) ([1]; Study Day 5): 33.3%
- % of Total Eyes, N (nuclear cataract) ([1]; Study Day 5): 0%
- % of Total Eyes, S (snowflake) ([1]; Study Day 5): 0%
- Number of Eyes Observed, + (vacuole) ([1]; Study Day 5): 8 eyes
- Number of Eyes Observed, - (Normal) ([1]; Study Day 5): 8 eyes
- Number of Eyes Observed, N (nuclear cataract) ([1]; Study Day 5): 0 eyes
- Number of Eyes Observed, S (snowflake) ([1]; Study Day 5): 0 eyes
- Number of Eyes Observed, ± ([1]; Study Day 5): 8 eyes
- % of Total Eyes, + (vacuole) ([1]; Study Day 6): 41.6%
- % of Total Eyes, - (Normal) ([1]; Study Day 6): 25.0%
- % of Total Eyes, N (nuclear cataract) ([1]; Study Day 6): 0%
- % of Total Eyes, S (snowflake) ([1]; Study Day 6): 0%
- Number of Eyes Observed, + (vacuole) ([1]; Study Day 6): 10 eyes
- Number of Eyes Observed, - (Normal) ([1]; Study Day 6): 6 eyes
- Number of Eyes Observed, N (nuclear cataract) ([1]; Study Day 6): 0 eyes
- Number of Eyes Observed, S (snowflake) ([1]; Study Day 6): 0 eyes
- Number of Eyes Observed, ± ([1]; Study Day 6): 8 eyes
- % of Total Eyes, + (vacuole) ([1]; Study Day 8): 50.0%
- % of Total Eyes, - (Normal) ([1]; Study Day 8): 16.7%
- % of Total Eyes, N (nuclear cataract) ([1]; Study Day 8): 0%
- % of Total Eyes, S (snowflake) ([1]; Study Day 8): 8.3%
- Number of Eyes Observed, + (vacuole) ([1]; Study Day 8): 12 eyes
- Number of Eyes Observed, - (Normal) ([1]; Study Day 8): 4 eyes
- Number of Eyes Observed, N (nuclear cataract) ([1]; Study Day 8): 0 eyes
- Number of Eyes Observed, S (snowflake) ([1]; Study Day 8): 2 eyes
- Number of Eyes Observed, ± ([1]; Study Day 8): 6 eyes
- % of Total Eyes, + (vacuole) ([1]; Study Day 10): 58.4%
- % of Total Eyes, - (Normal) ([1]; Study Day 10): 8.3%
- % of Total Eyes, N (nuclear cataract) ([1]; Study Day 10): 0%
- % of Total Eyes, S (snowflake) ([1]; Study Day 10): 16.7%
- Number of Eyes Observed, + (vacuole) ([1]; Study Day 10): 14 eyes
- Number of Eyes Observed, - (Normal) ([1]; Study Day 10): 2 eyes
- Number of Eyes Observed, N (nuclear cataract) ([1]; Study Day 10): 0 eyes
- Number of Eyes Observed, S (snowflake) ([1]; Study Day 10): 4 eyes
- Number of Eyes Observed, ± ([1]; Study Day 10): 4 eyes
- % of Total Eyes, + (vacuole) ([1]; Study Day 12): 62.5%
- % of Total Eyes, - (Normal) ([1]; Study Day 12): 0%
- % of Total Eyes, N (nuclear cataract) ([1]; Study Day 12): 0%
- % of Total Eyes, S (snowflake) ([1]; Study Day 12): 20.8%
- Number of Eyes Observed, + (vacuole) ([1]; Study Day 12): 15 eyes
- Number of Eyes Observed, - (Normal) ([1]; Study Day 12): 0 eyes
- Number of Eyes Observed, N (nuclear cataract) ([1]; Study Day 12): 0 eyes
- Number of Eyes Observed, S (snowflake) ([1]; Study Day 12): 5 eyes
- Number of Eyes Observed, ± ([1]; Study Day 12): 4 eyes
- % of Total Eyes, + (vacuole) ([1]; Study Day 14): 62.5%
- % of Total Eyes, - (Normal) ([1]; Study Day 14): 0%
- % of Total Eyes, N (nuclear cataract) ([1]; Study Day 14): 0%
- % of Total Eyes, S (snowflake) ([1]; Study Day 14): 29.2%
- Number of Eyes Observed, + (vacuole) ([1]; Study Day 14): 15 eyes
- Number of Eyes Observed, - (Normal) ([1]; Study Day 14): 0 eyes
- Number of Eyes Observed, N (nuclear cataract) ([1]; Study Day 14): 0 eyes
- Number of Eyes Observed, S (snowflake) ([1]; Study Day 14): 7 eyes
- Number of Eyes Observed, ± ([1]; Study Day 14): 2 eyes
- % of Total Eyes, + (vacuole) ([1]; Study Day 16): 45.8%
- % of Total Eyes, - (Normal) ([1]; Study Day 16): 0%
- % of Total Eyes, N (nuclear cataract) ([1]; Study Day 16): 0%
- % of Total Eyes, S (snowflake) ([1]; Study Day 16): 37.5%
- Number of Eyes Observed, + (vacuole) ([1]; Study Day 16): 13 eyes
- Number of Eyes Observed, - (Normal) ([1]; Study Day 16): 0 eyes
- Number of Eyes Observed, N (nuclear cataract) ([1]; Study Day 16): 0 eyes
- Number of Eyes Observed, S (snowflake) ([1]; Study Day 16): 9 eyes
- Number of Eyes Observed, ± ([1]; Study Day 16): 2 eyes
- % of Total Eyes, + (vacuole) ([1]; Study Day 18): 54.2%
- % of Total Eyes, - (Normal) ([1]; Study Day 18): 0%
- % of Total Eyes, N (nuclear cataract) ([1]; Study Day 18): 0%
- % of Total Eyes, S (snowflake) ([1]; Study Day 18): 37.5%
- Number of Eyes Observed, + (vacuole) ([1]; Study Day 18): 13 eyes
- Number of Eyes Observed, - (Normal) ([1]; Study Day 18): 0 eyes
- Number of Eyes Observed, N (nuclear cataract) ([1]; Study Day 18): 0 eyes
- Number of Eyes Observed, S (snowflake) ([1]; Study Day 18): 9 eyes
- Number of Eyes Observed, ± ([1]; Study Day 18): 2 eyes
- % of Total Eyes, + (vacuole) ([1]; Study Day 20): 29.2%
- % of Total Eyes, - (Normal) ([1]; Study Day 20): 0%
- % of Total Eyes, N (nuclear cataract) ([1]; Study Day 20): 4.2%
- % of Total Eyes, S (snowflake) ([1]; Study Day 20): 58.4%
- Number of Eyes Observed, + (vacuole) ([1]; Study Day 20): 7 eyes
- Number of Eyes Observed, - (Normal) ([1]; Study Day 20): 0 eyes
- Number of Eyes Observed, N (nuclear cataract) ([1]; Study Day 20): 1 eyes
- Number of Eyes Observed, S (snowflake) ([1]; Study Day 20): 14 eyes
- Number of Eyes Observed, ± ([1]; Study Day 20): 2 eyes
- % of Total Eyes, + (vacuole) ([1]; Study Day 22): 20.8%
- % of Total Eyes, - (Normal) ([1]; Study Day 22): 0%
- % of Total Eyes, N (nuclear cataract) ([1]; Study Day 22): 8.3%
- % of Total Eyes, S (snowflake) ([1]; Study Day 22): 70.8%
- Number of Eyes Observed, + (vacuole) ([1]; Study Day 22): 5 eyes
- Number of Eyes Observed, - (Normal) ([1]; Study Day 22): 0 eyes
- Number of Eyes Observed, N (nuclear cataract) ([1]; Study Day 22): 2 eyes
- Number of Eyes Observed, S (snowflake) ([1]; Study Day 22): 17 eyes
- Number of Eyes Observed, ± ([1]; Study Day 22): 0 eyes
- % of Total Eyes, + (vacuole) ([1]; Study Day 24): 20.8%
- % of Total Eyes, - (Normal) ([1]; Study Day 24): 0%
- % of Total Eyes, N (nuclear cataract) ([1]; Study Day 24): 8.3%
- % of Total Eyes, S (snowflake) ([1]; Study Day 24): 70.8%
- Number of Eyes Observed, + (vacuole) ([1]; Study Day 24): 5 eyes
- Number of Eyes Observed, - (Normal) ([1]; Study Day 24): 0 eyes
- Number of Eyes Observed, N (nuclear cataract) ([1]; Study Day 24): 2 eyes
- Number of Eyes Observed, S (snowflake) ([1]; Study Day 24): 17 eyes
- Number of Eyes Observed, ± ([1]; Study Day 24): 0 eyes
- % of Total Eyes, + (vacuole) ([1]; Study Day 26): 16.7%
- % of Total Eyes, - (Normal) ([1]; Study Day 26): 0%
- % of Total Eyes, N (nuclear cataract) ([1]; Study Day 26): 8.3%
- % of Total Eyes, S (snowflake) ([1]; Study Day 26): 75.0%
- Number of Eyes Observed, + (vacuole) ([1]; Study Day 26): 4 eyes
- Number of Eyes Observed, - (Normal) ([1]; Study Day 26): 0 eyes
- Number of Eyes Observed, N (nuclear cataract) ([1]; Study Day 26): 2 eyes
- Number of Eyes Observed, S (snowflake) ([1]; Study Day 26): 18 eyes
- Number of Eyes Observed, ± ([1]; Study Day 26): 0 eyes
- % of Total Eyes, + (vacuole) ([1]; Study Day 28): 16.7%
- % of Total Eyes, - (Normal) ([1]; Study Day 28): 0%
- % of Total Eyes, N (nuclear cataract) ([1]; Study Day 28): 16.7%
- % of Total Eyes, S (snowflake) ([1]; Study Day 28): 66.7%
- Number of Eyes Observed, + (vacuole) ([1]; Study Day 28): 4 eyes
- Number of Eyes Observed, - (Normal) ([1]; Study Day 28): 0 eyes
- Number of Eyes Observed, N (nuclear cataract) ([1]; Study Day 28): 4 eyes
- Number of Eyes Observed, S (snowflake) ([1]; Study Day 28): 16 eyes
- Number of Eyes Observed, ± ([1]; Study Day 28): 0 eyes
- % of Total Eyes, + (vacuole) ([1]; Study Day 30): 4.2%
- % of Total Eyes, - (Normal) ([1]; Study Day 30): 0%
- % of Total Eyes, N (nuclear cataract) ([1]; Study Day 30): 16.7%
- % of Total Eyes, S (snowflake) ([1]; Study Day 30): 79.2%
- Number of Eyes Observed, + (vacuole) ([1]; Study Day 30): 1 eyes
- Number of Eyes Observed, - (Normal) ([1]; Study Day 30): 0 eyes
- Number of Eyes Observed, N (nuclear cataract) ([1]; Study Day 30): 4 eyes
- Number of Eyes Observed, S (snowflake) ([1]; Study Day 30): 19 eyes
- Number of Eyes Observed, ± ([1]; Study Day 30): 0 eyes
- time to vacuole formation, 0.0025% methylthio versus 0.01% sulfinyl ([1]; methylthio 0.0025%, sulfinyl 0.01% in diet): not different from each other
- activity relative to the methylthio derivative [2]: lacked the activity of the methylthio derivative
